Measurements as given in patent US10821079B2, “PKC activators and combinations thereof” (Cognitive Research Enterprises, Inc., priority 2011, dated 2020).

Columns and labels:
PKC-ε = PKC-ε mRNA by RT-PCR in primary rat hippocampal neurons; type: cell-based; settings: controls and ASPD-treated cells
Experimental: RNA was isolated from the cells using Trizol reagent (Invitrogen, USA) following the manufacturer's protocol. Briefly, 5 μg of total RNA was reverse transcribed using oligo (dT) and Superscript III (Invitrogen, USA) at 50° C. for 1 hr. Two μl of the cDNA product was amplified using primers for PKC-ε (Forward Primer—[…], Reverse primer—[…]), and β-tubulin (Forward Primer—[…], Reverse primer—[…]) (Origene, Rockville, Md.) for 25 cycles following standard PCR protocols and 55° C. annealing temperature. The PCR amplicons were analyzed in an E-Gel (Invitrogen, USA). The gel image was documented using a Fuji Image gel scanner (FLA-9000, Fuji Film) and densitometric quantification was performed using the IMAL software (Blanchette Rockefeller Neurosciences Institute, Morgantown, W. Va.). Data were represented as normalized ratio of PKC-ε OD (Optical Density) against β-tubulin OD for three independent experiments.
Primary neurons were treated with ASPD and/or DCPLA-ME. PKC-ε mRNA was quantified by RT-PCR as described above. RNA prepared from control and treated cultured primary rat hippocampal neurons were isolated and reverse transcribed. Individual cDNA was amplified for PKC-ε and β-actin. PKC-ε expression was normalized to β-actin.

[1] = tested on: primary rat hippocampal neurons; assay: Neuroprotection against ASPD induced toxicity, MTT, primary neurons; type: cell-based
Experimental: Viability of cells was measured by MTT assay. MTT (3-(4,5-Dimethylthiazol-2-yl)-2,5-diphenyltetrazolium bromide) is a tetrazolium salt that is cleaved to formazan by the succinate dehydrogenase, which is only active in viable cells. After solubilization of the formazan, the amount of dye can be quantified with a microplate reader at 570 nm along with a reference of 630 nm. For MTT assay, 5×104 primary rat hippocampal neurons from 18-day-old embryonic Sprague-Dawley rat brains were plated on each well of 24-well plates coated with poly-D-lysine. After treatment, the cells were washed with 1×PBS and were incubated with 200 μl of 1 mg/ml MTT solution (Sigma, USA) at 37° C. for 2 hr. Then the MTT-solution was removed and the cells were lysed with 200 μl isopropanol containing 0.04 M HCl and 160 mM NaOH for 10 min. Finally, the reading was done at 570 nm and 630 nm. All the samples were done in triplicates and the data was represented as the percentage of control.
All studies used 50 nM ASPDs. The viability of the cells were measured by the MTT assay.

PKC-α = PKC-α translocation to membrane in SH-SY5Y cells (Western blot); type: cell-based, human; settings: 0.27 nM, 0-60 min
Experimental: Cells were harvested in homogenizing buffer containing 10 mM Tris-Cl (pH 7.4), 1 mM PMSF (phenylmethylsulfonyl fluoride), 1 mM EGTA, 1 mM EDTA, 50 mM NaF, and 20 μM leupeptin and were lysed by sonication. The homogenate was centrifuged at 100,000×g for 15 min at 4° C. to obtain the cytosolic fraction (supernatant) and membrane (pellet). The pellet was resuspended in the homogenizing buffer by sonication. Protein concentration was measured using the Coomassie Plus (Bradford) Protein Assay kit (Pierce, USA). Following quantification, 20 μg of protein from each sample was subjected to SDS-PAGE analysis in 4-20% gradient Tris-Glycine gel (Invitrogen, USA). The separated protein was then transferred to nitrocellulose membrane. The membrane was blocked with BSA at room temperature for 15 min and was incubated with primary antibody over night at 4° C. […] Western Blot was imaged in the ImageQuant RT-ECL (GE Life Sciences, Piscataway, N.J.) and densitometric quantification was performed using the IMAL software (Blanchette Rockefeller Neurosciences Institute, Morgantown, W. Va.). […]
Equal amounts of proteins were loaded in each lane (20 μg) for both the cytosol and membrane fractions. Activation of PKC was calculated as the percentage of total PKC in the membrane (membrane/cytosol+membrane).

PKC-ε-RACK1 = biological target: T1, PKC-ε-RACK1 (Homo sapiens, UniProt Q02156); assay: PKC-ε interaction with RACK1 (confocal colocalization, coimmunoprecipitation); type: cell-based; settings: 0.27 nM
T1 construct: host or cells: SH-SY5Y neuroblastoma cells
Experimental: (§1) Cells were grown in two chambered slides (Nunc, USA) at low density. For immunofluorescence staining, the cells were washed with PBS (pH 7.4) and fixed with 4% paraformaldehyde for 4 min. Following fixation, the cells were blocked and permeabilized with 5% serum and 0.3% Triton X 100 in 1×PBS for 30 min. The cells were washed three times with 1×PBS and incubated with primary antibodies for 1 hr at 1:100 dilution. The incubation slides were then washed again three times in 1×PBS and were incubated with the FITC anti-rabbit IgG and Rhodamine anti-mouse IgG for 1 hr at 1:400 dilution. The cells were further washed and treated with DAPI (4′,6-diamidino-2′-phenylindole, dihydrochloride) (Thermo Scientific, USA) to stain the nucleus. Finally, the slides were washed and mounted in Pro Long Gold antifade mounting solution (Invitrogen, USA) and were viewed under the LSM 710 Meta confocal microscope (Zeiss) at 350 nm, 490 nm, and 540 nm excitation and 470 nm, 525 nm, and 625 nm emission for DAPI, FITC, and Rhodamine respectively. Six individual fields at 63× oil lens magnification were analyzed for the mean fluorescence intensity (MFI) in each channel. The co-localization correlation generated by the ZEN software (Zeiss).
Coimmunoprecipitation was done following protocol described Besson et al. with slight modification. See Besson et al. (2002) J Biol Chem 277, 22073-22084. […] (DSP) for 30 min at room temperature to crosslink the intracellular proteins following the manufacturer's protocol. After crosslinking the proteins, the cells were lysed in the homogenizing buffer mentioned above. For immunoprecipitation, 500 μg of protein was incubated with 4 μg of appropriate antibody and 25 μl of Protein-A Sepharose beads (Invitrogen, USA) for 3 hr at 4° C. Immunoprecipitates were rinsed three times in the homogenizing buffer and were subjected to Western blot as described earlier.
Next, cells were prepared according to the coimmunoprecipitation methods discussed above.

PKC-α-RACK1 = biological target: T2, PKC-α-RACK1 (Homo sapiens, UniProt P17252); type: cell-based
T2 construct: host or cells: SH-SY5Y neuroblastoma cells
Experimental: as §1
Coimmunoprecipitation was done following protocol described Besson et al. with slight modification. See Besson et al. (2002) J Biol Chem 277, 22073-22084. […]

T1 sequence (Q02156 whole entry): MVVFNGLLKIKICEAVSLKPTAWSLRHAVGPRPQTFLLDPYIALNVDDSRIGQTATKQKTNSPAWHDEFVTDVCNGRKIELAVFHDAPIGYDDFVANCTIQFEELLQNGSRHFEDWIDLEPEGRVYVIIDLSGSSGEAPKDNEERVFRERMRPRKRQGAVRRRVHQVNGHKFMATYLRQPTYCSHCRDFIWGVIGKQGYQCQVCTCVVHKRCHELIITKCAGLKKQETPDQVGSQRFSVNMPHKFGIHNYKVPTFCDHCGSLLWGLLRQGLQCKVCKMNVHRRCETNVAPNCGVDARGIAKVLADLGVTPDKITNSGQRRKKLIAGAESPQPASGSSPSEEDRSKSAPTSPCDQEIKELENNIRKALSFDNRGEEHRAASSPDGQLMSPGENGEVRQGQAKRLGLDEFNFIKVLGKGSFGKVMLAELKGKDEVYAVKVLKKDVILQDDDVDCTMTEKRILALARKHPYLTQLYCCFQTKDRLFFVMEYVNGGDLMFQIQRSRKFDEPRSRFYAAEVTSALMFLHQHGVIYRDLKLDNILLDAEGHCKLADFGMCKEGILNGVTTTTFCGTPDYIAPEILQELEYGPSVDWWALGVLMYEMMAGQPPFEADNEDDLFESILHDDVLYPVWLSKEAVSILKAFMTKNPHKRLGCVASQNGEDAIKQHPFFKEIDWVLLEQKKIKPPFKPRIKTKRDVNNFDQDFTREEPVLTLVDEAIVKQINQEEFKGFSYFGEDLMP

Row | Structure (SMILES) | PKC-ε transcript levels (in words) (PKC-ε) | viability (Example 25) ([1]; 50 nM ASPDs alone (ASPD) or with the treatment named, 24 hr) | viability at 0.00027 µM ([1]; Rattus norvegicus, Hippocampal neuron, 20 h, read-out: viability restored in ASPD-treated primary neurons) | PKC-α translocation over time (in words) (PKC-α) | PKC-ε-RACK1 interaction by RACK1 immunoprecipitation (in words) (PKC-ε-RACK1) | colocalization correlation R (PKC-ε-RACK1; 5 min) | colocalization correlation R (PKC-ε-RACK1; 15 min) | PKC-α-RACK1 interaction by RACK1 immunoprecipitation (in words) (PKC-α-RACK1) | colocalization correlation R (PKC-α-RACK1)
1 | CCCCCC1CC1CC1CC1CCCCCCCC(=O)OC (stereo not drawn) [DCPLA-ME, methyl 8-(2-((2-pentylcyclopropyl)methyl)cyclopropyl)octanoate] | increased PKC-ε transcript levels |  |  |  |  |  |  |  | 
2 | CCC/C=C/C=C/C(=O)O[C@H]1/C(=C/C(=O)OC)C[C@H]2C[C@H]([C@@H](C)O)OC(=O)C[C@H](O)C[C@@H]3C[C@H](OC(C)=O)C(C)(C)C(O)(C[C@@H]4C/C(=C/C(=O)OC)C[C@H](/C=C/C(C)(C)[C@]1(O)O2)O4)O3 [Bryostatin-1] |  | 71.38%±2.34 | 73.2 ± 3.6% | came down to baseline at 60 min | increased significantly at 5, 15, and 30 min | 0.71 | 0.72 | increased at 15 min but decreased below the control level at 30 min | 0.58
